Laboratory results: paper PMC10272112 (Nature Communications, 2023)
Read-outs that look alike come from different tables or passages of the source.

What was measured:
HDAC10 = biological target: T1, HDAC10 (Homo sapiens, UniProt Q969S8); test: Chemoproteomic competition pulldown assay; format: binding
T1 construct: host or cells: HeLa mono-clones, stably expressing
T1 sequence (Q969S8 1-669): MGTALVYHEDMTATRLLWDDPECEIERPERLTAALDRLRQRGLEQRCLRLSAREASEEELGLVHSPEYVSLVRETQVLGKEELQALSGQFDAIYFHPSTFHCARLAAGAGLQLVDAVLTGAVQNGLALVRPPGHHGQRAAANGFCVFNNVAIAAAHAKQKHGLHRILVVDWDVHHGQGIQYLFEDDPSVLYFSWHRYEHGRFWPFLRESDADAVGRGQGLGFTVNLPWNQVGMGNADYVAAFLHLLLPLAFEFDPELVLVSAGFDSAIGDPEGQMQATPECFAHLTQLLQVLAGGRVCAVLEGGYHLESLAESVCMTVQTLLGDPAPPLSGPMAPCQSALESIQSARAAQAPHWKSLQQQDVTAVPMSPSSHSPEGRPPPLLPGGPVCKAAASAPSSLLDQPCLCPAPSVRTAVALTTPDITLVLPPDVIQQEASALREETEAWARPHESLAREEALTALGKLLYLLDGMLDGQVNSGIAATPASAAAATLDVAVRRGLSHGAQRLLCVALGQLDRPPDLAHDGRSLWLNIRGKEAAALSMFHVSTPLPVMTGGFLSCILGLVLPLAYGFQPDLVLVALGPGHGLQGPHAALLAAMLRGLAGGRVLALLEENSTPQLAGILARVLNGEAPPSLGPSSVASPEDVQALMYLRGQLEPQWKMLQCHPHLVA
Description: (§1) To identify proteins directly bound by lipoic acid, we employed a chemoproteomic competition assay. Briefly, (R/S)-LA was immobilized on sepharose beads via an amidation reaction to form an affinity matrix (abbreviated as iL; Fig. 1a). This affinity matrix can be incubated with cell lysate to pull down potential LA or LM target proteins and identify these targets via bottom-up proteomics. In a competition assay, free LA or LM were incubated with lysate at different concentrations before pulling down and quantifying target proteins. […] (Fig. 1b, see “Methods” for details). […] The lysate buffer used in this assay contains 1 mM DTT to mimic the intracellular reductive milieu and to reduce lipoic acid and LM. […] Additional competition assays performed in lung adenocarcinoma cell A549 lysate also identified HDAC1, HDAC2, and HDAC6 as targets (Supplementary Fig. 1b). Amongst the three cell lines tested, HDACs were the only confidently identified targets across the 1500–3000 proteins quantified in these assays. […] We validated the results by analogous pulldown competition assays using two other affinity matrices prepared via the immobilization of either the HDAC inhibitor Quisinostat (iQ) and an analog of the class IIa HDAC inhibitor Bürli’s 31[14] (iC)[12]. We have previously shown that these affinity matrices specifically bind to the active sites of HDACs and have used them for HDACi selectivity profiling. Indeed, binding of (R/S)-LA and (R/S)-LM to HDAC1, HDAC2, HDAC3, HDAC6, and, to a lesser extent, HDAC8 was confirmed in these assays (Supplementary Fig. 1c, d). No binding to class IIa HDACs or the recently discovered common HDAC inhibitor off-target MBLAC2 was observed (Supplementary Fig. 1e)[12]. […] This observation might reflect electrostatic repulsion between the HDAC10 active site gate-keeper glutamic acid residues[15],[16] and the terminal carboxylic acid of LA.
(§2) To assess the degree of protein depletion from lysates by the affinity matrix, a second pulldown (PDPD) with fresh beads was performed using the unbound protein fraction from the vehicle control flow through. The beads were washed (1 × 1 mL of lysis buffer without inhibitors and only 0.4% Igepal, 2 × 2 mL of lysis buffer without inhibitors and only 0.2% Igepal), and captured proteins were denatured with 8 M urea buffer, alkylated with 55 mM chloroacetamide and digested with Trypsin according to standard procedures. The resulting peptides were desalted on a C18 filter plate (Sep-Pak® tC18 µElution Plate, Waters), vacuum dried, and stored at −20 °C until LC–MSMS measurement.
(§3) For the competition assays, relative binding was calculated based on the protein intensity ratio to the DMSO control for every single inhibitor concentration. EC50 values were derived from a four-parameter log-logistic regression with variable slope (constrain: bottom > 0). The obtained EC50 values were multiplied with a protein-dependent correction factor (cf), resulting in the apparent Kd value (Kd^app). The correction factor is determined by calculating the ratio of the protein intensity of two consecutive pulldowns of the vehicle control sample[13]. Targets of the inhibitors were annotated manually according to published procedures[12],[46],[47]. […] Additionally, the number of unique peptides and MSMS counts per condition were taken into account. Positive target binding across several independent experiments performed with different cell lysates further substantiated our confidence for a true positive drug-target binding event.

HDAC2 = HDAC2 (Homo sapiens, UniProt Q92769); test: Chemoproteomic competition pulldown assay; format: binding; parameters: endogenous in cells; host or cells: SW620, MV4-11, A549 lysates
Description: as §1, §2, §3

[1] = iQ, SW620, read-out: pKdapp (converted)
[2] = iQ, SW620 lysate, log10 M -3.52288
[3] = iQ, SW620 lysate, log10 M -4.52288
[4] = iQ, SW620 lysate, log10 M -5.52288
[5] = iQ, SW620 lysate, log10 M -6.52288
[6] = iL, SW620, read-out: pKdapp (converted)
[7] = iL, MV4-11 lysate, log10 M -3.52288
[8] = iL, MV4-11 lysate, log10 M -4.52288
[9] = iL, MV4-11 lysate, log10 M -5.52288
[10] = iL, MV4-11 lysate, log10 M -6.52288
[11] = iL, MV4-11 lysate, read-out: Kd app
[12] = iL, MV411, read-out: pKdapp (converted)

Sequence of HDAC2 (Q92769 whole entry): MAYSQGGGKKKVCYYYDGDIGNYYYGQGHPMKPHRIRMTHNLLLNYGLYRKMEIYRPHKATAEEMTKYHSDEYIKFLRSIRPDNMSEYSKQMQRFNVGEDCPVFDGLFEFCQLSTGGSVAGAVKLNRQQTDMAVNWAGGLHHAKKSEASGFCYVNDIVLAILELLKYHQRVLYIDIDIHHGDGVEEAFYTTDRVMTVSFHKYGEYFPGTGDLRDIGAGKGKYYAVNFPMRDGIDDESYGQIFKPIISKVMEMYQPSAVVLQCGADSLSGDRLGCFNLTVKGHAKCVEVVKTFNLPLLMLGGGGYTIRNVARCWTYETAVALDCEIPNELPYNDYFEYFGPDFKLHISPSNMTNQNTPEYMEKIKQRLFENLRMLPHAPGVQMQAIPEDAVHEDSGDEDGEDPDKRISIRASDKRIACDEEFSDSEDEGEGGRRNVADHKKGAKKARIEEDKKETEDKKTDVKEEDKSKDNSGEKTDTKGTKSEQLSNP

Structure (SMILES)	HDAC10 binding in competition assays (HDAC10)	Kd (HDAC10; [1])	relative binding vs DMSO (HDAC10; [2])	relative binding vs DMSO (HDAC10; iQ, SW620 lysate, log10 M -4)	relative binding vs DMSO (HDAC10; [3])	relative binding vs DMSO (HDAC10; iQ, SW620 lysate, log10 M -5)	relative binding vs DMSO (HDAC10; [4])	relative binding vs DMSO (HDAC10; iQ, SW620 lysate, log10 M -6)	relative binding vs DMSO (HDAC10; [5])	relative binding vs DMSO (HDAC10; iQ, SW620 lysate, log10 M -7)	Kd (HDAC2; [6])	Kd (HDAC2; [1])	relative binding vs DMSO (HDAC2; [2])	relative binding vs DMSO (HDAC2; iQ, SW620 lysate, log10 M -4)	relative binding vs DMSO (HDAC2; [3])	relative binding vs DMSO (HDAC2; iQ, SW620 lysate, log10 M -5)	relative binding vs DMSO (HDAC2; [4])	relative binding vs DMSO (HDAC2; iQ, SW620 lysate, log10 M -6)	relative binding vs DMSO (HDAC2; [5])	relative binding vs DMSO (HDAC2; iQ, SW620 lysate, log10 M -7)	also measured
O=C(O)CCCCC1CCSS1 (racemic) [(R/S)-LA, (R/S)-lipoic acid]	does not bind HDAC10	> 316 µM	0.8351	1.0789	0.7975	1.279	1.261	1.294	1.332	1.395	6.31 µM	31.6 µM	0.2247	0.2743	0.6023	0.7491	0.82	0.8431	0.9314	0.8052	Kd (HDAC2; iL, A549, read-out: pKdapp (converted)): 1 µM; relative binding vs DMSO (HDAC2; iL, A549 lysate, log10 M -4): 0.3867; relative binding vs DMSO (HDAC2; iL, A549 lysate, log10 M -4.52288): 0.2342; relative binding vs DMSO (HDAC2; iL, A549 lysate, log10 M -5): 0.3145; relative binding vs DMSO (HDAC2; iL, A549 lysate, log10 M -5.52288): 0.7222; relative binding vs DMSO (HDAC2; iL, A549 lysate, log10 M -6): 0.7592; relative binding vs DMSO (HDAC2; iL, A549 lysate, log10 M -6.52288): 1.015; relative binding vs DMSO (HDAC2; iL, A549 lysate, log10 M -7.52288): 1.14; relative binding vs DMSO (HDAC2; iL, A549 lysate, log10 M -8): 1.179; relative binding vs DMSO (HDAC2; iL, A549 lysate, log10 M -8.52288): 1.15; relative binding vs DMSO (HDAC2; iL, SW620 lysate, log10 M -3.52288): 0.08452; relative binding vs DMSO (HDAC2; iL, SW620 lysate, log10 M -4): 0.1723; relative binding vs DMSO (HDAC2; iL, SW620 lysate, log10 M -4.52288): 0.723; relative binding vs DMSO (HDAC2; iL, SW620 lysate, log10 M -5): 1.4202; relative binding vs DMSO (HDAC2; iL, SW620 lysate, log10 M -5.52288): 0.8654; relative binding vs DMSO (HDAC2; iL, SW620 lysate, log10 M -6): 1.086; relative binding vs DMSO (HDAC2; iL, SW620 lysate, log10 M -6.52288): 0.8422; relative binding vs DMSO (HDAC2; iL, SW620 lysate, log10 M -7): 1.138
NC(=O)CCCCC1CCSS1 (racemic) [(R/S)-LM, (R/S)-lipoamide]	binds HDAC10 with an even higher affinity than other HDACs	3.16 µM	0.03275	0.4253	0.3482	0.4143	0.681	0.6621	0.6582	0.9909	20 µM	20 µM	0.1341	0.2239	0.5192	0.7829	0.822	0.953	0.8561	0.9474	relative binding vs DMSO (HDAC10; [7]): 0.04424; relative binding vs DMSO (HDAC10; iL, MV4-11 lysate, log10 M -4): 0.1432; relative binding vs DMSO (HDAC10; [8]): 0.2397; relative binding vs DMSO (HDAC10; iL, MV4-11 lysate, log10 M -5): 0.4705; relative binding vs DMSO (HDAC10; [9]): 0.6761; relative binding vs DMSO (HDAC10; iL, MV4-11 lysate, log10 M -6): 0.5589; relative binding vs DMSO (HDAC10; [10]): 0.7984; relative binding vs DMSO (HDAC10; iL, MV4-11 lysate, log10 M -7): 0.7331; Kd (HDAC10; [11]): 5 µM; Kd (HDAC10; [12]): 3.16 µM; relative binding vs DMSO (HDAC2; [7]): 0.0982; relative binding vs DMSO (HDAC2; iL, MV4-11 lysate, log10 M -4): 0.1933; relative binding vs DMSO (HDAC2; [8]): 0.3304; relative binding vs DMSO (HDAC2; iL, MV4-11 lysate, log10 M -5): 0.6612; relative binding vs DMSO (HDAC2; [9]): 0.6399; relative binding vs DMSO (HDAC2; iL, MV4-11 lysate, log10 M -6): 0.7735; relative binding vs DMSO (HDAC2; [10]): 0.8518; relative binding vs DMSO (HDAC2; iL, MV4-11 lysate, log10 M -7): 0.9297; Kd (HDAC2; [11]): 14 µM; Kd (HDAC2; [12]): 10 µM
